Experimental findings from ChEMBL document CHEMBL3991601, “The target landscape of clinical kinase drugs” (Science, 2017) are described below.

As usually defined, the Kd is a measure of binding affinity in units of concentration. One may read the pKd as −log10 of the Kd, conventionally taken in molar units. High values mean a small Kd, low ones a large Kd.

Experiment [1] has as its target Mitogen-activated protein kinase kinase kinase kinase 1 (Homo sapiens, UniProt Q92918).
Experiment [2] addresses Ribosomal protein S6 kinase alpha-6 (Homo sapiens, UniProt Q9UK32).
Experiment [3] deals with Calcium/calmodulin-dependent protein kinase type II subunit gamma (Homo sapiens, UniProt Q13555).
The target in experiment [4] is T1, Dual specificity mitogen-activated protein kinase kinase 6 (Homo sapiens, UniProt P52564).
T1 sequence (P52564 whole entry): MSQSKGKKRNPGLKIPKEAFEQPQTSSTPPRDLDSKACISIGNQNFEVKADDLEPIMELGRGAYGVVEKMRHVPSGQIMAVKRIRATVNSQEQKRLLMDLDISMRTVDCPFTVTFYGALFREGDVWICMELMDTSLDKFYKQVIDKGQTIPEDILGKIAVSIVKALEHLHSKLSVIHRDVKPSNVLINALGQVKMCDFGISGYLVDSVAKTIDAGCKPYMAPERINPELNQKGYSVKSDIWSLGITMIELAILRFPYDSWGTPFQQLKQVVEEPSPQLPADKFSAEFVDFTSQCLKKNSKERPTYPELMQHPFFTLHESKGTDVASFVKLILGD

Experiment [5] has as its target T2, EKC/KEOPS complex subunit TP53RK (Homo sapiens, UniProt Q96S44).
T2 sequence (Q96S44 whole entry): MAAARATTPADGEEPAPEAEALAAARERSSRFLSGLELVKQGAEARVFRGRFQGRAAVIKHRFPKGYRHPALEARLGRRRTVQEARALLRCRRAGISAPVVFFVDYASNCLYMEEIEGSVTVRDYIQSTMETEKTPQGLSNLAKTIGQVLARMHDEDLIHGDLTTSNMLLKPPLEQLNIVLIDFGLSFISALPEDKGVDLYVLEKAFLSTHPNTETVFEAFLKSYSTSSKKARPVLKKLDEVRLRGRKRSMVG

The target in experiment [6] is Tyrosine-protein kinase Lyn (Homo sapiens, UniProt P07948).
Experiment [7] has as its target T3, Discoidin domain-containing receptor 2 (Homo sapiens, UniProt Q16832).
T3 sequence (Q16832 whole entry): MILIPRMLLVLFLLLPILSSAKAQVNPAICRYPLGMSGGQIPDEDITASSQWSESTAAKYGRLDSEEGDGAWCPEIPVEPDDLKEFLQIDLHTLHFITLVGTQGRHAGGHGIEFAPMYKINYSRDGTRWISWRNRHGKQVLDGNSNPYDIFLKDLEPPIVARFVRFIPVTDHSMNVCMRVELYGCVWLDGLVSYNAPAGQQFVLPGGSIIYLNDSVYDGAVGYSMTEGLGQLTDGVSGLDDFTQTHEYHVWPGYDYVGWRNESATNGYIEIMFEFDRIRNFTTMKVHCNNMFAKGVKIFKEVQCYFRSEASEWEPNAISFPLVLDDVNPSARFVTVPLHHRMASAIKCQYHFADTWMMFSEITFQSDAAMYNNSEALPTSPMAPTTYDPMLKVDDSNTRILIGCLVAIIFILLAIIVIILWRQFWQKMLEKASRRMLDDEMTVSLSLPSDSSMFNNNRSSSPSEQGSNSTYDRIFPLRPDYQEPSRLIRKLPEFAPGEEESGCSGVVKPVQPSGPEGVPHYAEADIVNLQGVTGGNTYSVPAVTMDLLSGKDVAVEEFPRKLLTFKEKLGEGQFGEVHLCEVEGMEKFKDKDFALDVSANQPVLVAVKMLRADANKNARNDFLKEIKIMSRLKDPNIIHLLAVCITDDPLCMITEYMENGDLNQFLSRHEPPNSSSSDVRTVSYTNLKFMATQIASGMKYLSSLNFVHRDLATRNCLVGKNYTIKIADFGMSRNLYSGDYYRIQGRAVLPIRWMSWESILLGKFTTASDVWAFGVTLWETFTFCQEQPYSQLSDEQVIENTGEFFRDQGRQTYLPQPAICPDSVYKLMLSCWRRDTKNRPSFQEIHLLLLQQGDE

Experiment [8] concerns the target T4, Mitogen-activated protein kinase kinase kinase kinase 2 (Homo sapiens, UniProt Q12851).
T4 sequence (Q12851 whole entry): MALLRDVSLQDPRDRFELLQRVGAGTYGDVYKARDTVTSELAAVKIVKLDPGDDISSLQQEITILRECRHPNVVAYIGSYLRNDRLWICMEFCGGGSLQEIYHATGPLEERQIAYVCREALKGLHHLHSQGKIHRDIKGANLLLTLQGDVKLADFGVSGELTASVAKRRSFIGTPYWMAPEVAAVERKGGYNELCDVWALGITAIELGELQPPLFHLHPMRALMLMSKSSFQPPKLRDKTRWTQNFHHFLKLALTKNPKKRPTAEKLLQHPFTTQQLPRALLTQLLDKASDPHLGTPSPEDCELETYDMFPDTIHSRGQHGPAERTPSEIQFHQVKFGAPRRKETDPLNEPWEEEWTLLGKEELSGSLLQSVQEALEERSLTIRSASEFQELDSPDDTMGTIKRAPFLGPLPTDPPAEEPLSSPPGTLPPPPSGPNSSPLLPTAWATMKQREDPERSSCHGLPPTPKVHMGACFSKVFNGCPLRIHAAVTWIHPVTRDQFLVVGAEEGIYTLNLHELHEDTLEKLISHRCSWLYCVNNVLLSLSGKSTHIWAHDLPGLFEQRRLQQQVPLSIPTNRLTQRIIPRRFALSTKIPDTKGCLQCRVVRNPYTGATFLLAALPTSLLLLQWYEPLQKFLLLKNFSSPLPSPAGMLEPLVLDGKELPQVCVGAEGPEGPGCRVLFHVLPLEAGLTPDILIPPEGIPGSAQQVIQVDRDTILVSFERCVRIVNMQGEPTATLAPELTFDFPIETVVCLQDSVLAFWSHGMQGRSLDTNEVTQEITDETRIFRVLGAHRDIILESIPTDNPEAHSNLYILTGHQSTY

The target of experiment [9] is Serine/threonine-protein kinase 26 (Homo sapiens, UniProt Q9P289).

pKd: −log10 of the molar value. The source made the active and inactive calls. Rule as the data show it, for most assays here: actives have a measured Kd and inactives only a lower limit.
Also: in the data inactive means no Kd found up to 30 µM.

Sequence of Serine/threonine-protein kinase 26 (Q9P289 whole entry): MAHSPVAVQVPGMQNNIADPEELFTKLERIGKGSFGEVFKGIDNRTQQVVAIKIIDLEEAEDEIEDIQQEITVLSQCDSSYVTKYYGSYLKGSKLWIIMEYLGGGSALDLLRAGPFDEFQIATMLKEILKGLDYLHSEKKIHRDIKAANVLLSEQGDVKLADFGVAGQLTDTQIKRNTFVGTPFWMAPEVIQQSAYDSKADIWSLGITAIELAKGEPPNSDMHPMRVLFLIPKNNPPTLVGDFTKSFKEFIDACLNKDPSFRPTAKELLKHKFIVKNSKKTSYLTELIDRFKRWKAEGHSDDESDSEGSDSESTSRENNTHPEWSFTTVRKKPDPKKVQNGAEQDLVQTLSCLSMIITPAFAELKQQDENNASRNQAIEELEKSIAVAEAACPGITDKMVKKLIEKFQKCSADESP
Sequence of Ribosomal protein S6 kinase alpha-6 (Q9UK32 whole entry): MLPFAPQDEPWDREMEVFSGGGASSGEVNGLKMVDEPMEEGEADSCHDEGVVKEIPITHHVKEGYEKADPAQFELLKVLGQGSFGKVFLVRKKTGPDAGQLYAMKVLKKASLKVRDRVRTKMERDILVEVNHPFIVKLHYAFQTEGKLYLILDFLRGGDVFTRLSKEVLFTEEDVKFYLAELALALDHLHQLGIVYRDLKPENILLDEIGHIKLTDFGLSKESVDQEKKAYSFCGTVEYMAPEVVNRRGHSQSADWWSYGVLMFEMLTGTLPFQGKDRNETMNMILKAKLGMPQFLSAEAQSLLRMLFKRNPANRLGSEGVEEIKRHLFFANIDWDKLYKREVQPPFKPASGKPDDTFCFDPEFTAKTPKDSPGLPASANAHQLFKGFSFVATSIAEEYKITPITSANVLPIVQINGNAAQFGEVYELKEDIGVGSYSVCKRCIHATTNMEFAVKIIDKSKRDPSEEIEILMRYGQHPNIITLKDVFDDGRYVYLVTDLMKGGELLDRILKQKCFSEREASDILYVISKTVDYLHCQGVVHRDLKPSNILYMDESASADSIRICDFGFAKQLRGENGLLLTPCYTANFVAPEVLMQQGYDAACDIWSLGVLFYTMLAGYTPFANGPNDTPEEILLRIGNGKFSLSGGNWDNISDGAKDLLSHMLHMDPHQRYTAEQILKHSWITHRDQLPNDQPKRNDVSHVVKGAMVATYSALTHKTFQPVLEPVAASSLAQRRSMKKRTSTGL
Sequence of Tyrosine-protein kinase Lyn (P07948 whole entry, the tested form may be a part): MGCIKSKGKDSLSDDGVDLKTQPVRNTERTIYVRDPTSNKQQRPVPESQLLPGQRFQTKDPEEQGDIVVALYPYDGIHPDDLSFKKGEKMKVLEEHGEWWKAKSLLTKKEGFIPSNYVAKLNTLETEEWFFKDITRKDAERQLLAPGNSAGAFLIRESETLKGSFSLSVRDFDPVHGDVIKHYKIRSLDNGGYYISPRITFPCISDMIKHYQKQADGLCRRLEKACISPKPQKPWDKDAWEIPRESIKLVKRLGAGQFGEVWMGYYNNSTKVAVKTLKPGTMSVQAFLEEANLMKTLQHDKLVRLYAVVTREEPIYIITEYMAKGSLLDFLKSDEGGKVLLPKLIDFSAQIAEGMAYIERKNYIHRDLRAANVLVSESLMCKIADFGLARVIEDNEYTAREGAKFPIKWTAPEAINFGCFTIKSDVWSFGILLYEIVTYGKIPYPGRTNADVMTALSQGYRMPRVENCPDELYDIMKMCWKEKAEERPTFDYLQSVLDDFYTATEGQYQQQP
Sequence of Mitogen-activated protein kinase kinase kinase kinase 1 (Q92918 whole entry): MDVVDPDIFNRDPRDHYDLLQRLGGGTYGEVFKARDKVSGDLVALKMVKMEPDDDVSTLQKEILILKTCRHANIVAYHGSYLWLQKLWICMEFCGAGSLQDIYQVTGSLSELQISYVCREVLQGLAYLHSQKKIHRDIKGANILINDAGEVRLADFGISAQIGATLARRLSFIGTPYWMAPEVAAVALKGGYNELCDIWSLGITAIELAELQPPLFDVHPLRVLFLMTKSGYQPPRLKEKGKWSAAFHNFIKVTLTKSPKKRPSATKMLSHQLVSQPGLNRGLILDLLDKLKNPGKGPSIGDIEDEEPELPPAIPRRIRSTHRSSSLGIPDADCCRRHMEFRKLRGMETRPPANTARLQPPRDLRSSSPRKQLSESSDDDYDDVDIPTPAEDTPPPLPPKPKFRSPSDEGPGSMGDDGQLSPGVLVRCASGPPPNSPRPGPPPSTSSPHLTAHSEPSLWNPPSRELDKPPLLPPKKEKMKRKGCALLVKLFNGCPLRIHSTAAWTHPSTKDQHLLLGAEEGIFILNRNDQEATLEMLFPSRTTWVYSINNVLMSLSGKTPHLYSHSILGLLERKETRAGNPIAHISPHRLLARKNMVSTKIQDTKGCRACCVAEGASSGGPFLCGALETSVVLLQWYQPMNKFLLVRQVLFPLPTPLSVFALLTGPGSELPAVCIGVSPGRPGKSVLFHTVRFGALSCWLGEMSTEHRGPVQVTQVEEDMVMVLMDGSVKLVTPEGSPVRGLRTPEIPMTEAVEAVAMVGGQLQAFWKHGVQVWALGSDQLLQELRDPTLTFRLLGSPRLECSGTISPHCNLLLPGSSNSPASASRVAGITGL
Sequence of Calcium/calmodulin-dependent protein kinase type II subunit gamma (Q13555 whole entry): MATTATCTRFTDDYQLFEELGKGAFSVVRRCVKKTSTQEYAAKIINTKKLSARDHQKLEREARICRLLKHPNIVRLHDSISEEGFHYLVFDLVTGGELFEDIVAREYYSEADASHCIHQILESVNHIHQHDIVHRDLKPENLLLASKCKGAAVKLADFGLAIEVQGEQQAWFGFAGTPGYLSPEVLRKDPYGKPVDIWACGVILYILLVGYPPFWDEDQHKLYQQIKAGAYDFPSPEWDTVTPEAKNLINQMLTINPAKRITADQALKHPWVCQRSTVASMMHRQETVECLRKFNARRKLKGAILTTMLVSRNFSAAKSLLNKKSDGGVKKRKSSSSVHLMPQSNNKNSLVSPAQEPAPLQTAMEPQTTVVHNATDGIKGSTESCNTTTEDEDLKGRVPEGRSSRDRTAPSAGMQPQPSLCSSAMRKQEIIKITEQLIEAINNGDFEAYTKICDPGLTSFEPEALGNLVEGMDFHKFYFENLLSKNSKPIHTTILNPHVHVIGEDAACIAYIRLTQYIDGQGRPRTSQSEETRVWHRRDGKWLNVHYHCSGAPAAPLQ

Consider `COc1cc2ncnc(Nc3ccc(F)c(Cl)c3)c2cc1NC(=O)/C=C/CN1CCCCC1` [DACOMITINIB ANHYDROUS], for which the Kd in experiment [1], in [2], in experiment [3], in experiment [4], in experiment [5] and in [6] was > 30 µM (inactive) throughout. For the same compound, the Kd in experiment [7], in experiment [8] and in [9] was > 30 µM (inactive) throughout.

Consider `COCCN1CCN(Cc2ccc(-c3n[nH]c4c3C(=O)c3c(NC(=O)NN5CCOCC5)cccc3-4)cc2)CC1` [RGB-286638], for which the Kd in [1] was > 30 µM (inactive); in [2] it was > 30 µM (inactive); in experiment [3], > 30 µM (inactive); in [4], 1.95 µM (active); in [5], 1.72 µM (active); in experiment [6] it was > 30 µM (inactive). Also, the Kd in experiment [7] is > 30 µM (inactive); in [8], > 30 µM (inactive); in experiment [9] it was 1.05 µM (active).

As to `O=C(NOC[C@H](O)CO)c1ccc(F)c(F)c1Nc1ccc(I)cc1F` [MIRDAMETINIB], the Kd in experiment [1], in [2], in experiment [3], in experiment [4], in experiment [5] and in experiment [6] was > 30 µM (inactive) in each case. In addition, the Kd in experiment [7], in experiment [8] and in [9] was > 30 µM (inactive) throughout.

For `CNC(=O)c1cccc(-c2ccc3c(N4CCOC[C@@H]4C)nc(N4CCOC[C@@H]4C)nc3n2)c1` [VISTUSERTIB], the Kd in [1], in experiment [2], in experiment [3], in experiment [4], in experiment [5] and in experiment [6] was > 30 µM (inactive) each time. For the same compound, the Kd in [7], in experiment [8] and in experiment [9] was > 30 µM (inactive) each time.

Regarding `COc1cc2nccc(Oc3ccc(NC(=O)C4(C(=O)Nc5ccc(F)cc5)CC4)cc3)c2cc1OC` [CABOZANTINIB], the Kd in experiment [1] was > 30 µM (inactive); in experiment [2] it was > 30 µM (inactive); in [3] it was > 30 µM (inactive); in [4] it was > 30 µM (inactive); in [5], > 30 µM (inactive); in [6], 1.33 µM (active). For the same compound, the Kd in experiment [7] is 0.501 µM (active); in [8] it was > 30 µM (inactive); in [9], > 30 µM (inactive).

As to `Cc1cc(Nc2nc(N[C@@H](C)c3ncc(F)cn3)ncc2Cl)n[nH]1` [AZD-1480], the Kd in experiment [1], in experiment [2], in [3], in experiment [4], in experiment [5] and in experiment [6] was > 30 µM (inactive) each time. Also, the Kd in experiment [7], in experiment [8] and in experiment [9] was > 30 µM (inactive) each time.

`O=C(Nc1ccc(OC(F)(F)F)cc1)c1sccc1NCc1ccnc2ccccc12` [OSI-930]: the Kd in [1], in experiment [2], in experiment [3], in experiment [4], in [5] and in [6] was > 30 µM (inactive) in each case. Further, the Kd in [7], in experiment [8] and in [9] was > 30 µM (inactive) in each case.

Take `O=C(O)c1ccc2c(c1)nc(Nc1cccc(Cl)c1)c1ccncc12` [SILMITASERTIB]: the Kd in experiment [1] was > 30 µM (inactive); in experiment [2], 3.42 µM (active); in [3] it was > 30 µM (inactive); in experiment [4], > 30 µM (inactive); in experiment [6], > 30 µM (inactive); in experiment [7], > 30 µM (inactive). Further, the Kd in experiment [8] was > 30 µM (inactive). In [9], this compound had a pKd of 5.77.
